This is an account of results in patent publication US12576099B2, “Ribose-modified cap analog and use thereof” (Beijing Youcare Kechuang Pharmaceutical Technology Co., Ltd., priority 2024, dated 2026).

The nature of data set [1]: Characterization of lipid nanoparticles encapsulating Fluc-mRNA prepared from different cap structures. It is filed as physicochemical. Particulars: for Particle size: LNP (YK-009/DSPC/cholesterol/DMG-PEG2000) with Fluc-mRNA transcribed using the named cap analog; for PDI: LNP with Fluc-mRNA transcribed using the named cap analog; for EE: encapsulation efficiency of LNP with Fluc-mRNA transcribed using the named cap analog. In a few lines:
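LNPs of YK-009/DSPC/cholesterol/DMG-PEG2000 (49:10:39.5:1.5) made by microfluidic mixing with Fluc-mRNA in 50 mM citrate pH 4, lipid:mRNA ~15:1 w/w, then ultrafiltered into PBS and 0.2 μm filtered. Size and PDI by DLS (90°, 25 °C, triplicate); encapsulation efficiency by RiboGreen assay.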

The target in data set [2] is T1, DCP2 enzyme (Schizosaccharomyces pombe, UniProt O13828).
T1 construct: purchased New England Biolabs
T1 sequence (O13828 1-243 limits assumed): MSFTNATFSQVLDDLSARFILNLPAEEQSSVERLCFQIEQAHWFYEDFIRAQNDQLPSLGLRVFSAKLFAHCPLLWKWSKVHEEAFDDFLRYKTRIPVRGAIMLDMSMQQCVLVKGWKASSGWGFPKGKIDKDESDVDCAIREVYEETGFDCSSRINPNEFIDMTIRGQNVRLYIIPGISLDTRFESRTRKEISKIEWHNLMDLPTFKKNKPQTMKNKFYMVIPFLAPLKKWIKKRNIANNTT
T1 sequence (Q9P805 1-127 partner): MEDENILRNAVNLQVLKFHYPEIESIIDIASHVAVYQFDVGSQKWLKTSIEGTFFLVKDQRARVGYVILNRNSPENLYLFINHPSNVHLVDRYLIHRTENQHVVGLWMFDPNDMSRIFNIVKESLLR
T1 sequence (Q10108 155-180 partner limits assumed): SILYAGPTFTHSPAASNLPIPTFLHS
Put plainly: Decapping enzyme stability test. Particulars: for Decapping rate (%) of DCP2 enzyme: 50 U mRNA decapping enzyme, 37° C., 45 minutes; for Decapping rate lower than that of HN3002: relative to HN3002; for Decapping rate lower than that of YK-CAP-101: relative to YK-CAP-101; for Decapping rate lower than that of YK-CAP-102: relative to YK-CAP-102; for Decapping rate lower than that of YK-CAP-103: relative to YK-CAP-103; for Decapping rate lower than that of YK-CAP-104: relative to YK-CAP-104; for Decapping rate lower than that of YK-CAP-105: relative to YK-CAP-105; for Decapping rate lower than that of compound 14: relative to compound 14; for Decapping rate lower than that of m6A: relative to m6A. It is filed as biochemical. In a few lines: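 PAGE-purified RNA ([…]) incubated with 50 U mRNA decapping enzyme in 1×MDE buffer at 37° C. for 45 minutes. Products resolved by PAGE, SYBR Green II stained; decapping rate derived from capped-to-decapped band intensity ratio.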

The target in data set [3] is T7 RNA polymerase (Escherichia phage T7, UniProt P00573). Description: Capping rate of mRNA transcription initiated by cap analogs (LC-MS). It is filed as biochemical. The note with it: for Capping rate: LC-MS of mRNA 5′ fragment. As for the experimental part: During the experiment, the volume of materials required for the system was first calculated, and then sample addition was conducted. The system was first added with sterile enzyme-free water, followed by the sequential addition of 10× buffer, NTPs, and cap analogs, mixed well, and gently centrifuged. Nuclease inhibitors, inorganic pyrophosphatase, T7RNA polymerase, and linearized DNA templates were then added thereto. The system was mixed well, gently centrifuged, and incubated at 37° C. After 2 hours of incubation, the system was added with 1 U of DNase I and incubated at 37° C. for another 30 minutes. The mRNA precipitate was then washed with 75% ethanol, and after the ethanol was briefly evaporated to dryness, the mRNA was redissolved in sterile enzyme-free water. • (3) The transcription product was purified, and the in vitro transcription yield of mRNA was recorded. • (4) The obtained mRNA was subjected to an annealing reaction with a probe.
The annealing reaction was performed in a PCR instrument: 95° C. for 5 minutes; 65° C. for 2 minutes; 55° C. for 2 minutes; 40° C. for 2 minutes; 22° C. for 2 minutes. • (5) Magnetic bead pretreatment and probe binding: 100 μL of magnetic beads was placed on a magnetic frame for pretreatment. The magnetic bead solution was added with 120 μL of sample and incubated at room temperature for 30 minutes with slow mixing. • (6) mRNA splicing and obtaining the mRNA 5′ single-strand sequence bound to the probe
The mixture was added with 20 μL of RNase H (5 U/μL) and incubated at 37° C. for 3 hours with mixing every half hour. After incubation, the magnetic beads were washed and then added with 100 μL of 75% methanol heated to 80° C. The mixture was heated to 80° C. on a heating plate, held for 3 minutes, then placed on a magnetic frame to aspirate the supernatant, and dried at room temperature for 45 minutes to a volume of 10 μL using a centrifugal evaporator. The sample was then resuspended in 50 μL of 100 μM EDTA/1% MeOH and ready for LC-MS analysis to determine the capping of RNA in the transcription reaction. Since there is a significant difference in molecular weight between capped and uncapped bases, the capping rate of mRNA transcription initiated by different cap analogs can be determined based on the difference in molecular mass.

Chain of T7 RNA polymerase (P00573 whole entry, the tested form may be a part): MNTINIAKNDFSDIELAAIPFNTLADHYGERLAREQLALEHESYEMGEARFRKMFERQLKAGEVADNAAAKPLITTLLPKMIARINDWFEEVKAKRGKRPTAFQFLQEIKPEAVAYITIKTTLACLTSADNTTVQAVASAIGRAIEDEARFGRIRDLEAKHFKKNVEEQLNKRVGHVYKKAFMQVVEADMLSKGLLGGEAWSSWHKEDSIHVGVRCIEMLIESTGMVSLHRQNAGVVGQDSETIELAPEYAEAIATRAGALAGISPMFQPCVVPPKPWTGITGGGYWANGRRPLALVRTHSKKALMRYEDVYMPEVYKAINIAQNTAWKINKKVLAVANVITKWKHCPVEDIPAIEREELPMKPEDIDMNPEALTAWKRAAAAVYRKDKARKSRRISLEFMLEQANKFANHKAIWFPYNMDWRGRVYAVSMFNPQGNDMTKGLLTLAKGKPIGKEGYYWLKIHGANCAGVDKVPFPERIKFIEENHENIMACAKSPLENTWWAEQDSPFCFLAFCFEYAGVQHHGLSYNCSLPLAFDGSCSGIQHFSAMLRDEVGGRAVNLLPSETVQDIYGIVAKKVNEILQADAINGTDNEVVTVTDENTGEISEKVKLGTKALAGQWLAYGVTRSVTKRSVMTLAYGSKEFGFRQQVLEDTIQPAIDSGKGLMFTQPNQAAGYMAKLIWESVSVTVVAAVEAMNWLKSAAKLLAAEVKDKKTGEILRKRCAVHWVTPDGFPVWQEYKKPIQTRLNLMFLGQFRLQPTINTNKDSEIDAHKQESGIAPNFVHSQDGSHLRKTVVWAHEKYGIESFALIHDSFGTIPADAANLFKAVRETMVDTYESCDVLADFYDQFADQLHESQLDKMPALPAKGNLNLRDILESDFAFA

Regarding `CO[C@@H]1[C@H](OP(=O)(O)OC[C@H]2O[C@@H](n3cnc4c(=O)[nH]c(N)nc43)[C@H](O)[C@@H]2O)[C@@H](COP(=O)(O)OP(=O)(O)OP(=O)(O)OC[C@H]2O[C@@H]([n+]3cn(C)c4c(=O)[nH]c(N)nc43)[C@H](O)[C@]2(C)NC(C)=O)O[C@H]1n1cnc2c(N)ncnc21` [YK-CAP-106], in data set [1], the Particle size worked out at 68.24 nm, the PDI was 0.048 and the EE was found to be 97.1%. Besides, in data set [2], the “Decapping rate (%) of DCP2 enzyme” value worked out at 17.3% and the “Decrease relative to N-7113 (decapping rate)” value turned out to be 26.5%. Besides, in data set [3], the Capping rate came to 95.3% and the “Increase relative to 5227 (capping rate)” value is given as 32.5%.
In data set [1], `CO[C@@H]1[C@H](OP(=O)(O)OC[C@H]2O[C@@H](n3cnc4c(=O)[nH]c(N)nc43)[C@H](O)[C@@H]2O)[C@@H](COP(=O)(O)OP(=O)(O)OP(=O)(O)OC[C@H]2O[C@@H]([n+]3cn(C)c4c(=O)[nH]c(N)nc43)[C@H](O)[C@@H]2C(F)F)O[C@H]1n1cnc2c(N)ncnc21` [YK-CAP-110] had a Particle size of 69.64 nm, a PDI of 0.033 and an EE of 97.7%. Besides, in data set [2], the “Decapping rate (%) of DCP2 enzyme” value worked out at 10.2%, the “Decapping rate lower than that of HN3002” value is recorded as 13.1%, the “Decrease relative to N-7113 (decapping rate)” value is 33.6% and the “Decapping rate lower than that of YK-CAP-101” value is 22.2%. In addition, in data set [2], the “Decapping rate lower than that of YK-CAP-102” value was 31.0%, the “Decapping rate lower than that of YK-CAP-103” value was determined as 26.3%, the “Decapping rate lower than that of YK-CAP-104” value was 35.9% and the “Decapping rate lower than that of YK-CAP-105” value was 23.7%. In addition, in data set [2], the “Decapping rate lower than that of compound 14” value is listed as 16.6% and the “Decapping rate lower than that of m6A” value stood at 23.6%. In addition, in data set [3], the Capping rate stood at 97.4% and the “Increase relative to 5227 (capping rate)” value stood at 35.5%.
In data set [1], `COC[C@@H]1[C@H](OP(=O)(O)OC[C@H]2O[C@@H](n3cnc4c(=O)[nH]c(N)nc43)[C@H](O)[C@@H]2O)[C@@H](COP(=O)(O)OP(=O)(O)OP(=O)(O)OC[C@H]2O[C@@H]([n+]3cn(C)c4c(=O)[nH]c(N)nc43)[C@H](O)[C@@H]2O)O[C@H]1n1cnc2c(N)ncnc21` [YK-CAP-113] showed a Particle size of 79.34 nm, a PDI of 0.043 and an EE of 96.1%. Further, in data set [2], the “Decapping rate (%) of DCP2 enzyme” value came out at 15.3% and the “Decrease relative to N-7113 (decapping rate)” value is listed as 28.5%. Also, in data set [3], the Capping rate worked out at 95.2% and the “Increase relative to 5227 (capping rate)” value turned out to be 32.4%.
Consider `CO[C@@H]1[C@H](OP(=O)(O)OC[C@H]2O[C@@H](n3cnc4c(=O)[nH]c(N)nc43)[C@H](O)[C@@H]2O)[C@@H](COP(=O)(O)OP(=O)(O)OP(=O)(O)OC[C@@]2(C(F)F)O[C@@H]([n+]3cn(C)c4c(=O)[nH]c(N)nc43)[C@H](O)[C@@H]2O)O[C@H]1n1cnc2c(N)ncnc21` [YK-CAP-119], for which, in data set [1], the Particle size is listed as 82.45 nm, the PDI amounted to 0.057 and the EE turned out to be 94.6%. In addition, in data set [2], the “Decapping rate (%) of DCP2 enzyme” value is reported as 11.4% and the “Decrease relative to N-7113 (decapping rate)” value is reported as 32.4%. Further, in data set [3], the Capping rate is 96.3% and the “Increase relative to 5227 (capping rate)” value was determined as 33.9%.
In data set [1], `CO[C@@H]1[C@H](OP(=O)(O)OC[C@H]2O[C@@H](n3cnc4c(=O)[nH]c(N)nc43)[C@H](O)[C@@H]2O)[C@@H](COP(=O)(O)OP(=O)(O)OP(=O)(O)OC[C@@]2(CF)O[C@@H]([n+]3cn(C)c4c(=O)[nH]c(N)nc43)[C@H](O)[C@@H]2O)O[C@H]1n1cnc2c(N)ncnc21` [YK-CAP-118] yielded a Particle size of 75.84 nm, a PDI of 0.055 and an EE of 97.2%. In data set [2], the “Decapping rate (%) of DCP2 enzyme” value amounted to 11.9% and the “Decrease relative to N-7113 (decapping rate)” value worked out at 31.9%. Besides, in data set [3], the Capping rate amounted to 97.2% and the “Increase relative to 5227 (capping rate)” value amounted to 35.2%.
In data set [1], `COC(C)[C@H]1[C@@H](O)[C@H]([n+]2cn(C)c3c(=O)[nH]c(N)nc32)O[C@@H]1COP(=O)(O)OP(=O)(O)OP(=O)(O)OC[C@H]1O[C@@H](n2cnc3c(N)ncnc32)[C@H](OC)[C@@H]1OP(=O)(O)OC[C@H]1O[C@@H](n2cnc3c(=O)[nH]c(N)nc32)[C@H](O)[C@@H]1O` (stereo partly drawn) [YK-CAP-107] registered a Particle size of 78.42 nm, a PDI of 0.053 and an EE of 96.3%. In data set [2], the “Decapping rate (%) of DCP2 enzyme” value turned out to be 11.5% and the “Decrease relative to N-7113 (decapping rate)” value stood at 32.3%. Besides, in data set [3], the Capping rate is 97.3% and the “Increase relative to 5227 (capping rate)” value was determined as 35.3%.
In data set [1], `COC[C@]1(COP(=O)(O)OP(=O)(O)OP(=O)(O)OC[C@H]2O[C@@H](n3cnc4c(N)ncnc43)[C@H](OC)[C@@H]2OP(=O)(O)OC[C@H]2O[C@@H](n3cnc4c(=O)[nH]c(N)nc43)[C@H](O)[C@@H]2O)O[C@@H]([n+]2cn(C)c3c(=O)[nH]c(N)nc32)[C@H](O)[C@@H]1O` [YK-CAP-117] came in with a Particle size of 72.56 nm, a PDI of 0.044 and an EE of 94.3%. In addition, in data set [2], the “Decapping rate (%) of DCP2 enzyme” value is 9.8%, the “Decapping rate lower than that of HN3002” value is 13.5%, the “Decrease relative to N-7113 (decapping rate)” value worked out at 34.0% and the “Decapping rate lower than that of YK-CAP-101” value is 22.6%. In addition, in data set [2], the “Decapping rate lower than that of YK-CAP-102” value was found to be 31.4%, the “Decapping rate lower than that of YK-CAP-103” value is recorded as 26.7%, the “Decapping rate lower than that of YK-CAP-104” value is on record as 36.3% and the “Decapping rate lower than that of YK-CAP-105” value is 24.1%. Moreover, in data set [2], the “Decapping rate lower than that of compound 14” value amounted to 17.0% and the “Decapping rate lower than that of m6A” value is recorded as 24.0%. Further, in data set [3], the Capping rate is listed as 95.1% and the “Increase relative to 5227 (capping rate)” value is recorded as 32.3%.
Regarding `CO[C@@H]1[C@H](OP(=O)(O)OC[C@H]2O[C@@H](n3cnc4c(=O)[nH]c(N)nc43)[C@H](O)[C@@H]2O)[C@@H](COP(=O)(O)OP(=O)(O)OP(=O)(O)OC[C@H]2O[C@@H]([n+]3cn(C)c4c(=O)[nH]c(N)nc43)[C@H](O)[C@@H]2C(C)NC(C)=O)O[C@H]1n1cnc2c(N)ncnc21` (stereo partly drawn) [YK-CAP-108], in data set [1], the Particle size was found to be 83.13 nm, the PDI amounted to 0.023 and the EE was found to be 96.4%. In data set [2], the “Decapping rate (%) of DCP2 enzyme” value was determined as 16.3% and the “Decrease relative to N-7113 (decapping rate)” value is given as 27.5%. For the same compound, in data set [3], the Capping rate turned out to be 95.8% and the “Increase relative to 5227 (capping rate)” value is recorded as 33.2%.
